Measurements as given in ChEMBL document CHEMBL1201862, “PubChem BioAssay data set” (2004).
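Protocol summary: plate cells (96-well), add compound at 5 concentrations, incubate 48 h, interpolate endpoints linearly. GI50 = concentration required for 50% inhibition of growth.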 The source made the active and inactive calls. No stated cut-off is given here; in the data, active = GI50 up to about 1.1 µM and inactive = higher.

How the values were obtained:
Assay in all cases: NCI anticancer screen, dose series, 48 h
[1] = test system: BT-549
[2] = test system: DMS-273
[3] = test system: M19-MEL
[4] = test system: LXFL 529
[5] = test system: SNB-78
[6] = test system: KM-20L2
[7] = test system: XF498
[8] = test system: RXF 631
[9] = test system: DMS-114

| Structure (SMILES) | GI50 [1] | GI50 [2] | GI50 [3] | GI50 [4] | GI50 [6] | other results |
| --- | --- | --- | --- | --- | --- | --- |
| Cc1cn(CCOCCOC(=O)NC(CCCNC(N)=O)C(=O)O)c(=O)[nH]c1=O (stereo unspecified) | > 100 µM (inactive) | – | – | – | – | – |
| CC(=O)OCCOCn1c2ccccc2c2c3c(c4c5ccccc5n(COCCOC(C)=O)c4c21)C(=O)N(Cc1ccccc1)C3=O | – | > 100 µM (inactive) | > 100 µM (inactive) | > 100 µM (inactive) | > 100 µM (inactive) | GI50 [5]: > 100 µM (inactive) |
| Cc1sccc1C(=S)Nc1ccc(Cl)c(/C=N/OC(C)(C)C)c1 | 17.7 µM (inactive) | – | – | – | – | – |
| C=CCC1=CC2(OC)C(=O)C(OC)(OC)C1C1C(OC)(OC)C(=O)C(OC)=CC12CC=C (stereo unspecified) | 49.9 µM (inactive) | – | – | – | – | – |
| Cc1cn(C2C=CC(=O)C(C)O2)c(=O)[nH]c1=O (stereo unspecified) | – | 18.1 µM (inactive) | 15.8 µM (inactive) | 14.8 µM (inactive) | 16.3 µM (inactive) | GI50 [7]: 13.5 µM (inactive); GI50 [5]: 16.7 µM (inactive); GI50 [8]: 15.2 µM (inactive) |
| CC1=NN(c2ccc(S(=O)(=O)O)cc2)C(=O)/C1=C/c1ccc(Cl)cc1.c1ccncc1 | > 100 µM (inactive) | – | – | – | – | – |
| COC(=O)[C@H](NC(=O)OC(C)(C)C)[C@H]1COC(C)(C)O1 | > 100 µM (inactive) | – | – | – | – | – |
| COC1OC(CBr)C(OC(=O)c2ccccc2)C(OS(=O)(=O)c2ccc(C)cc2)C1Br (stereo unspecified) | – | > 100 µM (inactive) | > 100 µM (inactive) | > 100 µM (inactive) | > 100 µM (inactive) | GI50 [5]: > 100 µM (inactive) |
| c1ccc(SCCP(CCP(c2ccccc2)c2ccccc2)c2ccccc2)cc1 (stereo unspecified) | 6.81 µM (inactive) | 1.73 µM (inactive) | 10.7 µM (inactive) | 3.33 µM (inactive) | – | GI50 [9]: 10.2 µM (inactive); GI50 [7]: 2.47 µM (inactive); GI50 [5]: 2.22 µM (inactive) |
| Cc1ccc(C2SCC(=O)N2c2ccc(-n3c(-c4ccccc4)nc4ccccc4c3=O)cc2)cc1 (stereo unspecified) | 20.2 µM (inactive) | – | – | – | – | – |
| CC(=O)Oc1cc(-c2oc3cc(OC(C)=O)c(C4OC(CO)C(O)C(O)C4O)c(OC(C)=O)c3c(=O)c2O)c(OC(C)=O)cc1O (stereo unspecified) | > 100 µM (inactive) | – | – | – | – | – |
| COC(=O)/C=C\S/C(=C(/c1ccccc1)n1ccc(C(=O)OC)n1)c1ccccc1 | > 100 µM (inactive) | – | – | – | – | – |
| CN(Cc1nc2c(N)nc(N)nc2nc1N)c1ccc(C(=O)NC(CCC(=O)O)C(=O)O)cc1 (stereo unspecified) | > 100 µM (inactive) | – | – | – | – | – |
| CC(=O)OCC(OC(C)=O)C(OC(C)=O)C(OC(C)=O)C(/C=N\Nc1nc2ccccc2c(=O)[nH]1)OC(C)=O (stereo unspecified) | > 100 µM (inactive) | – | – | – | – | – |
| COc1ccc2c(c1OC)C(C=C(c1ccccc1)c1ccccc1)CN(C)C2 (stereo unspecified) | – | 17.5 µM (inactive) | 30.5 µM (inactive) | 14.4 µM (inactive) | 10.3 µM (inactive) | GI50 [9]: 13.9 µM (inactive); GI50 [5]: 34.6 µM (inactive); GI50 [8]: 17.4 µM (inactive) |
| CCOC(=O)/C(C#N)=C(O)/C(=C/c1ccccc1Cl)NC(=O)c1ccccc1 | – | 31.5 µM (inactive) | > 100 µM (inactive) | > 100 µM (inactive) | > 100 µM (inactive) | GI50 [9]: > 100 µM (inactive); GI50 [5]: > 100 µM (inactive) |

| Structure (SMILES) | GI50 [1] | GI50 [2] | GI50 [3] | GI50 [4] | GI50 [6] | other results |
| --- | --- | --- | --- | --- | --- | --- |
| CCOC(=O)C1=C(C)NC(c2ccccc2)=C(C(=O)OCc2ccccc2)C1C#Cc1ccccc1 (stereo unspecified) | > 100 µM (inactive) | – | – | – | – | – |
| O=C(NCc1cccs1)OC1CC2CCC1C2 (stereo unspecified) | > 100 µM (inactive) | – | – | – | – | – |
| COc1c(Cl)ccc(Cl)c1-c1nnc(-c2c(Cl)c(Cl)c(Cl)c(Cl)c2-c2nc3cc(C(=O)c4ccccc4)ccc3[nH]2)o1 | 76.7 µM (inactive) | – | – | – | – | – |
| O=C1c2c(c3c4ccccc4n4c3c3c2c2ccccc2n3C/C=C\C4)C(=O)N1Cc1ccccc1 | – | – | > 100 µM (inactive) | > 100 µM (inactive) | > 100 µM (inactive) | GI50 [7]: 31.3 µM (inactive) |
| CC(C)C[C@H]1[C@@H](OCc2ccccc2)COS(=O)N1[C@H](C)c1ccccc1 (stereo partly specified) | 38.1 µM (inactive) | – | – | – | – | – |
| C[C@H](CCC(=O)NCC(=O)O)[C@H]1CC[C@H]2[C@@H]3[C@H](O)C[C@@H]4C[C@H](O)CC[C@]4(C)[C@H]3CC[C@]12C | > 100 µM (inactive) | – | – | – | – | – |
| C[C@H]1[C@@H](c2ccccc2)O[B-](c2ccccc2)(c2ccccc2)[N+]1(C)C | 33.5 µM (inactive) | – | – | – | – | – |
| NC1CSc2ccccc2NC1=O (stereo unspecified) | > 100 µM (inactive) | – | – | – | – | – |
| CC12CCC(=O)[C@@]1(C)CCCC2=O (stereo partly specified) | > 100 µM (inactive) | – | – | – | – | – |
| O=[N+]([O-])c1nccn1CCCNc1c2ccccc2[n+]([O-])c2ccccc12 | > 100 µM (inactive) | – | – | – | – | – |
| COc1ccc(S(=O)(=O)Nc2ccccc2C(=O)O)cc1 | – | > 100 µM (inactive) | > 100 µM (inactive) | > 100 µM (inactive) | > 100 µM (inactive) | GI50 [7]: > 100 µM (inactive); GI50 [8]: > 100 µM (inactive) |
| CN(C)CCC(=O)c1ccccc1 | – | > 58.2 µM (inactive) | 33.2 µM (inactive) | 26.3 µM (inactive) | > 43.8 µM (inactive) | GI50 [9]: > 39.1 µM (inactive); GI50 [7]: 19.4 µM (inactive); GI50 [5]: 38.2 µM (inactive) |
| Nc1nc(O)c2nc(N)n(Cc3ccccc3)c2n1 | – | > 100 µM (inactive) | > 100 µM (inactive) | > 100 µM (inactive) | > 100 µM (inactive) | GI50 [9]: > 100 µM (inactive); GI50 [7]: > 100 µM (inactive) |
| CC(=O)OCC(=O)[C@@]12OC(C)(C)O[C@@H]1C[C@H]1[C@@H]3CC(C=O)=C4C=C(OCCCl)CC[C@]4(C)[C@@]3(F)[C@@H](O)C[C@@]12C [FORMOCORTAL] | – | 19.9 µM (inactive) | 22.3 µM (inactive) | – | 11.8 µM (inactive) | GI50 [9]: > 100 µM (inactive); GI50 [7]: 15.1 µM (inactive); GI50 [5]: 15 µM (inactive) |
| CCOC(=O)C1=C(C)NC(=S)NC1c1cccc(O)c1 (stereo unspecified) [MONASTROL] | 56.6 µM (inactive) | – | – | – | – | – |
